Series [1] in a line: Lipid degradability by mouse lung S9 in vitro. The class given is in vitro ADME. The settings on record: 2 μM lipid, 2.4 mg/ml lung S9, pH 7.4, 37° C. The procedure: (§1) Lipid degradability by MOUSE/HUMAN lung S9 in vitro
(§2) Assay format—4 or 5 time points in triplicate.
(§3) • 1) Plan experiment, compounds, and reagents. • 2) Dissolve each lipid in DMSO or IPA to make 5 mM stock, then dilute by IPA to 200 μM work solution. • 3) Thaw mouse and human lung S9. • 4) Prepare pooled incubation mixture as in the reaction formulas below on ice. • 5) Aliquot 495 μL incubation mixture prepared in step #4 to each well of a 2 mL 96-well plate. • 6) Add 5 μL compound to each well to initiate the reaction. Take t0 samples (as in step #8). • 7) Cover the plate with 2 layers of breathable seals and incubate the plate on an orbital shaker at 150 rpm in a 37° C. CO2 incubator. • 8) At each time point, pipette to mix the incubation mixture 5 times, then take 70 μL of incubation mixture to a fresh plate. Store in −20° C. freezer immediately. • 9) Add 210 μL (3× volume) of the cold stop solution to each well of the sample plates collected. Mix at 600 rpm on an orbital shaker for 15 min. • 10) Centrifuge the quenched plates at 3800 rpm for 10 min at 4° C. and transfer supernatant to fresh plates. • 11) Load the supernatant on filter plates and centrifuge again at 3800 rpm for 5 min at 4° C. Collect final samples in fresh plates for LC/MS.
(§4) • 4-5 Time points (hour): e.g. 0, 4, 8, 24, 48 hr • stop solution: 1:1:1 ACN/MeOH/IPA (v/v/v) with propranolol & MC3 as internal standard. Store at 4° C.

A short description of series [2]: Lipid degradability by human lung S9 in vitro. The class given is in vitro ADME. The following applies: 2 μM lipid, 2.4 mg/ml lung S9, pH 7.4, 37° C. The procedure: as §1, §2, §3, §4
For another series, the system named is male CD1 mice. Nature of the series: Delivery of FFL mRNA by intratracheal administration, IVIS luciferase imaging of the lung. The class given is in vivo, mouse. The following applies: lipid nanoparticles with FFL mRNA, single intratracheal administration via catheter, about 24 hours post-dose. The method, then:
Lipid nanoparticle formulations listed in Table 1 comprising FFL mRNA, cationic lipid, DMG-PEG2000, cholesterol and DOPE were administered to male CD1 mice (6-8 weeks old) by a single intratracheal administration via Catheter® ([…]) while under anesthesia. At approximately 24 hours post-dose, the animals were dosed with luciferin at 150 mg/kg (60 mg/ml) by intraperitoneal injection at 2.5 ml/kg. After 5-15 minutes, all animals were imaged using an IVIS imaging system to measure luciferase production in the lung.

The next series relates to mice. Nature of the series: Delivery of FFL mRNA by intranasal administration, IVIS luminescent imaging. The class given is in vivo, mouse. The settings on record: lipid nanoparticle with FFL mRNA, dose 10 μg/Animal, 24 hours post dose. The method, then:
Lipid nanoparticle formulation 3 listed in Table 1 comprising FFL mRNA, cationic lipid, DMG-PEG2000, cholesterol and DOPE was administered in mice via pipetting the formulations at 10 μg/Animal and 15 μl per nostril. On Day 2, 24 hours post dose (±5%), all animals undergo a luminescent imaging session using IVIS with separate ROIs on the nose and lungs. Whole body imaging are performed 10-15 minutes following D-Luciferin administration. All animals are dosed with 0.2 mL of 15 mg/mL D-luciferin solution via intraperitoneal (IP) injection. Anesthesia performed by isoflurane during the procedure and animals will be placed sternal recumbency (face-down). […]

This is an account of results in patent publication US20260226094A1, “STEROL-BASED CATIONIC LIPIDS WITH AROMATIC HEAD GROUPS” (SANOFI, priority 2023, published 2026).

Turning to `COc1cc(C(=O)OCCNC(=N)N)cc(OC)c1OC(=O)CCO[C@H]1CC[C@@]2(C)C(=CC[C@H]3[C@@H]4CC[C@H]([C@H](C)CCCC(C)C)[C@@]4(C)CC[C@@H]32)C1` [Compound III], in series [1], the “In vitro degradation Mouse lung S9” value is listed as 50.1 h. For the same compound, in series [2], the “In vitro degradation Human lung S9” value is listed as 39.2 h. The “in vivo FFL protein production (luciferase activity in the lung, FIG. 5)” value in the series on male CD1 mice was “high levels of in vivo FFL protein production”. In addition, in the series with mice, the “FFLuc (Avr. Rad.)” value is recorded as 890,880 p/s/cm^2/sr.

`COc1cc(C(=O)OCCCNC(=N)N)cc(OC)c1OC(=O)CCO[C@H]1CC[C@@]2(C)C(=CC[C@@H]3C2CC[C@]2(C)[C@@H]([C@H](C)CCCC(C)C)CC[C@@H]32)C1` (some centres unmarked) [Compound IV]: the “In vitro degradation Mouse lung S9” value in series [1] is recorded as 69.6 h. Also, the “In vitro degradation Human lung S9” value in series [2] is given as 62.9 h. For the same compound, the “in vivo FFL protein production (luciferase activity in the lung, FIG. 5)” value with male CD1 mice is reported as “high levels of in vivo FFL protein production”. In addition, the “FFLuc (Avr. Rad.)” value in the series with mice is recorded as 833,279 p/s/cm^2/sr.

Take `COc1cc(C(=O)OCCN(C)C)cc(OC)c1OC(=O)CCC(=O)O[C@H]1CC[C@@]2(C)C(=CC[C@H]3[C@@H]4CC[C@H]([C@H](C)CCCC(C)C)[C@@]4(C)CC[C@@H]32)C1` [Compound I]: the “In vitro degradation Mouse lung S9” value in series [1] is given as 23.6 h. For the same compound, in series [2], the “In vitro degradation Human lung S9” value stood at 22.2 h. Further, in the series with mice, the “FFLuc (Avr. Rad.)” value is given as 421,679 p/s/cm^2/sr.

`COc1cc(C(=O)OCCCN(C)C)cc(OC)c1OC(=O)CCO[C@H]1CC[C@@]2(C)C(=CC[C@H]3[C@@H]4CC[C@H]([C@H](C)CCCC(C)C)[C@@]4(C)CC[C@@H]32)C1` [Compound II]: the “In vitro degradation Mouse lung S9” value in series [1] is 39.3 h. The “In vitro degradation Human lung S9” value in series [2] is 38.2 h. Also, in the series on mice, the “FFLuc (Avr. Rad.)” value is reported as 592,290 p/s/cm^2/sr.
